Test results as given in ChEMBL document CHEMBL1201862, “PubChem BioAssay data set” (2004).
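All cell lines were grown in 96-well plates and treated with compound for 48 hours. The concentration for 50% growth inhibition is given as GI50.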 Calls of active or inactive are those of the source. Cut-off read from the data, not from the text of the source: active = GI50 up to about 1.1 µM and inactive = higher.

Legend:
Experiment in all cases: NCI tumour cell line growth inhibition, 48 h
BT-549 = test system: BT-549
T47D = test system: T47D
Hs-578T = test system: Hs-578T
DLD-1 = test system: DLD-1
LXFL 529 = test system: LXFL 529
DMS-114 = test system: DMS-114
HOP-18 = test system: HOP-18
DMS-273 = test system: DMS-273

| Structure (SMILES) | GI50 (BT-549) | GI50 (T47D) | GI50 (Hs-578T) | GI50 (DLD-1) | GI50 (LXFL 529) | GI50 (DMS-114) | GI50 (HOP-18) | GI50 (DMS-273) |
| --- | --- | --- | --- | --- | --- | --- | --- | --- |
| CCOC(=O)C(NC(=O)c1ccccc1)(N1CCOCC1)C(F)(F)F (stereo not drawn) | > 100 µM (inactive) | > 100 µM (inactive) | > 100 µM (inactive) |  |  |  |  |  |
| COc1cnc2oc3ccc(O)cc3c2c1-c1ccccc1 | > 100 µM (inactive) | 3.65 µM (inactive) | > 100 µM (inactive) |  |  |  |  |  |
| O=C1OC(CCCl)(c2ccccc2)CC1CN1CCOCC1 (stereo not drawn) |  |  |  | 17.7 µM (inactive) | 18.8 µM (inactive) | 20.4 µM (inactive) |  |  |
| Cc1ccc(O)c(C(c2cccc(C(c3cc(C)ccc3O)c3cc(C)ccc3O)c2)c2cc(C)ccc2O)c1 | 2.43 µM (inactive) | 1.98 µM (inactive) | 1.56 µM (inactive) |  |  |  |  |  |
| Cc1cc(O)c2c(c1)CC(O)C1=C2C(=O)c2c(O)ccc(OC3CC(O)C(OC4CC(OC5CCC(O)C(C)O5)C(O)C(C)O4)C(C)O3)c2C1=O (stereo not drawn) | 1.86 µM (inactive) | 2.15 µM (inactive) | 2.62 µM (inactive) |  |  |  |  |  |
| COC(=O)N/N=C(/CCN1CCCC1)CC(c1ccccc1)c1c(O)c2ccccc2oc1=O (stereo not drawn) |  |  |  | > 100 µM (inactive) | > 100 µM (inactive) |  | > 100 µM (inactive) | > 100 µM (inactive) |
| O=c1cc2n(c(=O)[nH]1)C1OC(C(O)C1O)[C@H]2CCO (stereo partly drawn) |  |  |  | > 100 µM (inactive) | > 100 µM (inactive) | > 100 µM (inactive) |  | > 100 µM (inactive) |
| COC(=O)C[C@@H]1C(C)(C)[C@@H]2O[C@@]34C[C@@H]2C(=O)[C@]1(C)[C@H]3CC[C@@]1(C)[C@H](c2ccoc2)OC(=O)C[C@]14O | > 100 µM (inactive) | > 100 µM (inactive) |  |  |  |  |  |  |
| O=C(/N=C(/Nc1ccccc1)SCCS/C(=N\C(=O)c1ccccc1)Nc1ccccc1)c1ccccc1 |  |  |  | 49.8 µM (inactive) | 56.2 µM (inactive) | 35.7 µM (inactive) |  | 78.3 µM (inactive) |
| COC(=O)CCCC(=O)NC1=C(Nc2ccccc2)C(=O)c2ccccc2C1=O |  | 24.3 µM (inactive) | 28.7 µM (inactive) |  |  |  |  |  |
| COc1ccc([C@H]2[C@H](C)C3=Nc4ccccc4CN32)cc1 | > 100 µM (inactive) |  | > 100 µM (inactive) |  |  |  |  |  |
| CC1=NC2(CCCCC2)N(Cl)C(=O)C1SC#N (stereo not drawn) | 14.4 µM (inactive) | 21.6 µM (inactive) | 41 µM (inactive) |  |  |  |  |  |
| C1=C[C@@H]2c3ccc4cnccc4c3NC[C@@H]2C1 | > 100 µM (inactive) | > 100 µM (inactive) | 46.8 µM (inactive) |  |  |  |  |  |
| CCOc1ccc(N(CC(=O)N2CC(=O)Nc3cc(C)c(C)cc32)C(C)=O)cc1 |  |  |  | > 100 µM (inactive) | > 100 µM (inactive) |  | > 100 µM (inactive) | > 100 µM (inactive) |
| COc1ccc(OC)c([N+](=O)[O-])c1-c1nc2sccn2c1/C=N/N=C(N)N | 53.2 µM (inactive) | 66.1 µM (inactive) | 26.7 µM (inactive) |  |  |  |  |  |
| Cc1nc2c(O)cc3c4c([nH]c3c2nc1C)C(=O)CCC4 |  |  | 2.62 µM (inactive) |  |  |  |  |  |
| C=C1C(=O)OC2CC1C(OC(=O)/C=C/c1ccccc1)C/C(C)=C/CC/C(C)=C/CCC2(C)O (stereo not drawn) | 1.05 µM (active) | 3.47 µM (inactive) | 2.19 µM (inactive) |  |  |  |  |  |
| NCCCN(CCCCN(CCCN)CCCc1ccccc1)CCCc1ccccc1 | 3.03 µM (inactive) | 6.84 µM (inactive) | 1.81 µM (inactive) |  |  |  |  |  |
| O=C1NCN(c2ccccc2)C12CCN(CCc1ccc3[nH]c(=S)[nH]c3c1)CC2 | 30.5 µM (inactive) | 16.4 µM (inactive) | > 100 µM (inactive) |  |  |  |  |  |
| Nc1cccc2c1-c1c(cccc1[N+](=O)[O-])C2=O |  |  |  | > 100 µM (inactive) |  | > 100 µM (inactive) | > 100 µM (inactive) | > 100 µM (inactive) |
| CC1CC[C@@]2(OC1)OC1C[C@H]3[C@@H]4C/C(=N\N(C)C)[C@@]5(O)CC(O)CC[C@]5(C)[C@H]4CC[C@]3(C)C1[C@@H]2C (stereo partly drawn) | 51.2 µM (inactive) | 31.5 µM (inactive) | 33.3 µM (inactive) |  |  |  |  |  |
| CC(C)(C)OC(=O)N(O)CCCn1cnc2c(N)ncnc21 | > 100 µM (inactive) | > 100 µM (inactive) | > 100 µM (inactive) |  |  |  |  |  |
| Clc1cc(OC2C3CC4CC(C3)CC2C4)nc(Cl)n1 (stereo not drawn) | 19.8 µM (inactive) | 20.1 µM (inactive) | 18.9 µM (inactive) |  |  |  |  |  |
| COC(=O)C1(SC)C2CCC3C2CCC31 (stereo not drawn) | > 100 µM (inactive) | > 100 µM (inactive) | > 100 µM (inactive) |  |  |  |  |  |
| CC(C)/C=C1\CCC(CN2CCCC2)C1=O (stereo not drawn) |  |  |  | 3.88 µM (inactive) | 3.03 µM (inactive) | 12.9 µM (inactive) | 7.73 µM (inactive) |  |
| CCOC(=O)c1cc(C2CCN(CC(C)CC)C2=S)c(C(=O)/C=C(/C)N)[nH]1 (stereo not drawn) | > 50 µM (inactive) | > 50 µM (inactive) | > 50 µM (inactive) |  |  |  |  |  |
| CC(=O)/N=C1\NC(=O)/C(=C/c2ccccc2Cl)N1C | > 100 µM (inactive) |  | > 100 µM (inactive) |  |  |  |  |  |
| COc1ccc(/N=N/c2ccc3oc(=O)c(C(=O)Nc4ccc(Cl)cc4)cc3c2)cc1 |  | 6.76 µM (inactive) | > 10 µM (inactive) |  |  |  |  |  |
